In article PMC13198257, “An aerosolized dual-action autotaxin inhibitor-PPARγ agonist for the treatment of pulmonary fibrosis” (Cell Reports Medicine, 2026):

System: lung gene expression
Experiment: RNA sequencing of lung tissue (BLM/EL244 vs BLM)
Type: in vivo, mouse
Method: RNA quality was assessed using an Agilent TapeStation 4150 with the High Sensitivity […] ScreenTape (Agilent), according to the manufacturer’s protocols. For library preparation, the QuantSeq 3’mRNA-Seq Library Prep Kit (Lexogen) was used according to manufacturer’s instructions. Briefly, 500 ng of RNA from each sample was used for first-strand synthesis, followed by RNA template removal, and second-strand synthesis initiated by random primers. In-line barcodes were introduced at this step, and this was followed by magnetic bead-based purification. The resulting libraries were amplified for 15 cycles and re-purified, with quantity and quality assessed on a Qubit 4 Fluorometer with the Invitrogen Qubit dsDNA HS Assay and an Agilent Tapestation 4150 with the High Sensitivity D1000 assay kit, respectively. The quantified libraries were pooled equimolarly; 50ng of total library mix was used for Adapter Conversion PCR Amplification using the Universal Library Conversion Kit (App-A), Version: V1.0 (MGI Tech Co., Ltd.), according to the manufacturer’s instructions.
The quantity and quality of the purified adapter conversion PCR (AC-PCR) product were evaluated on a Qubit 4 Fluorometer with the Invitrogen Qubit dsDNA HS Assay and on an Agilent Tapestation 4150 with the High Sensitivity D1000 assay kit, respectively. This was followed by DNA denaturation, Single-Strand Circularisation, Enzymatic Digestion, Enzymatic Digestion Product Cleanup and Quality Control steps on 1 pmol of AC-PCR product, according to the Universal Library Conversion Kit (App-A) User Manual (Version: A3).
Finally, 60 fmol of ssCirDNA were used for DNB preparation and sequencing on a DNBSEQ-G400 platform at the BSRC Alexander Fleming Genomics Facility, using a G400 App-A FCS SE100 High-throughput Sequencing Set (MGI Tech Co., Ltd.), according to the manufacturer’s instructions.
Alignment of the FASTQ files was performed against the mouse genome build mm10 using a custom Bash script.[143] Read counting on the 3′ UTRs and differential expression analysis were conducted using the metaseqR2 bioconductor package.[144] Genes corresponding to the following biotypes were excluded: polymorphic_pseudogene, processed_transcript, pseudogene, IG_V_pseudogene, misc_RNA, IG_C_gene, IG_J_gene, IG_D_gene, IG_LV_gene, TR_V_gene, TR_V_pseudogene, TEC, and processed_pseudogene. Gene counts were normalized with DESEQ[145] through metaseqR2. Genes with more than 10 counts in at least 50% of the samples were kept for further processing. For differential expression analysis, the PANDORA algorithm[146] was used to estimate a meta p-value integrating the results from the DESEQ, DESEQ2,[147] edgeR,[148] limma,[149] NBPSeq,[150] and NOISeq[151] algorithms. All additional parameters were set to default values.
Pathway enrichment analysis was performed for the Gene Ontology Biological process (BP) and Molecular Function (MF) terms through GeneCodis 4.[152] The volcano plots, scatterplots, Venn diagrams, and dot plots were generated using the ggplot2 Bioconductor package.

In the case of `O=C1NC(=O)C(Cc2ccc(OCCC3CCN(C(=O)OCc4cc(Cl)cc(Cl)c4)CC3)cc2)S1` (stereo not drawn) [EL244, 3,5-dichlorobenzyl 4-(2-(4-((2,4-dioxothiazolidin-5-yl)methyl)phenoxy)ethyl)piperidine-1-carboxylate], the “log2 nFC BLM/EL244 vs BLM” value (DEG Ccl9) was -1.37, the “log2 nFC BLM/EL244 vs BLM” value (DEG Ccnb1) was -2.41 and the “Cd300lg log2 nFC BLM/EL244 vs BLM” value (DEG Cd300lg, nFC: normalised fold change) was 1.18. For the same molecule, the “log2 nFC BLM/EL244 vs BLM” value (DEG Cdc20) was -1.58, the “log2 nFC BLM/EL244 vs BLM” value (DEG Cdca2) was -1.33 and the “log2 nFC BLM/EL244 vs BLM” value (DEG Cenpa) was -1.31. For the same molecule, the “log2 nFC BLM/EL244 vs BLM” value (DEG Cenpk) was -1.51, the “log2 nFC BLM/EL244 vs BLM” value (DEG Cenpw) was -1.33 and the “Cep85l log2 nFC BLM/EL244 vs BLM” value (DEG Cep85l, nFC: normalised fold change) was 1.02. For the same molecule, the “log2 nFC BLM/EL244 vs BLM” value (DEG Cercam) was -1.37, the “Cfap100 log2 nFC BLM/EL244 vs BLM” value (DEG Cfap100, nFC: normalised fold change) was 0.89 and the “Cfap206 log2 nFC BLM/EL244 vs BLM” value (DEG Cfap206, nFC: normalised fold change) was 0.77. The “Cftr log2 nFC BLM/EL244 vs BLM” value (DEG Cftr, nFC: normalised fold change) was 0.96, the “Chia1 log2 nFC BLM/EL244 vs BLM” value (DEG Chia1, nFC: normalised fold change) was 1.16 and the “Chrdl1 log2 nFC BLM/EL244 vs BLM” value (DEG Chrdl1, nFC: normalised fold change) was 1.39. For the same molecule, the “log2 nFC BLM/EL244 vs BLM” value (DEG Chsy3) was -1.56, the “Cidec log2 nFC BLM/EL244 vs BLM” value (DEG Cidec, nFC: normalised fold change) was 1.57 and the “log2 nFC BLM/EL244 vs BLM” value (DEG Cilp) was -1.39. For the same molecule, the “log2 nFC BLM/EL244 vs BLM” value (DEG Ckap2) was -2.44, the “Ckm log2 nFC BLM/EL244 vs BLM” value (DEG Ckm, nFC: normalised fold change) was 2.32 and the “Ckmt2 log2 nFC BLM/EL244 vs BLM” value (DEG Ckmt2, nFC: normalised fold change) was 2.73. The “log2 nFC BLM/EL244 vs BLM” value (DEG Cks1b) was -1.54, the “Cldn5 log2 nFC BLM/EL244 vs BLM” value (DEG Cldn5, nFC: normalised fold change) was 0.97 and the “log2 nFC BLM/EL244 vs BLM” value (DEG Clec4a2) was -1.26. For the same molecule, the “log2 nFC BLM/EL244 vs BLM” value (DEG Clec4n) was -1.39, the “log2 nFC BLM/EL244 vs BLM” value (DEG Col1a2) was -1.41 and the “log2 nFC BLM/EL244 vs BLM” value (DEG Col3a1) was -1.54. For the same molecule, the “log2 nFC BLM/EL244 vs BLM” value (DEG Col5a1) was -1.52, the “log2 nFC BLM/EL244 vs BLM” value (DEG Col5a2) was -1.48 and the “log2 nFC BLM/EL244 vs BLM” value (DEG Col5a3) was -1.53. The “Colq log2 nFC BLM/EL244 vs BLM” value (DEG Colq, nFC: normalised fold change) was 1.81, the “Cox6a2 log2 nFC BLM/EL244 vs BLM” value (DEG Cox6a2, nFC: normalised fold change) was 1.42 and the “Crebl2 log2 nFC BLM/EL244 vs BLM” value (DEG Crebl2, nFC: normalised fold change) was 0.79. For the same molecule, the “Crispld2 log2 nFC BLM/EL244 vs BLM” value (DEG Crispld2, nFC: normalised fold change) was 0.80, the “Cry2 log2 nFC BLM/EL244 vs BLM” value (DEG Cry2, nFC: normalised fold change) was 0.70 and the “Csf3r log2 nFC BLM/EL244 vs BLM” value (DEG Csf3r, nFC: normalised fold change) was 1.69. For the same molecule, the “Csrnp1 log2 nFC BLM/EL244 vs BLM” value (DEG Csrnp1, nFC: normalised fold change) was 0.83, the “Csrp3 log2 nFC BLM/EL244 vs BLM” value (DEG Csrp3, nFC: normalised fold change) was 2.07 and the “Cst8 log2 nFC BLM/EL244 vs BLM” value (DEG Cst8, nFC: normalised fold change) was 1.41. For the same molecule, the “Ctla2a log2 nFC BLM/EL244 vs BLM” value (DEG Ctla2a, nFC: normalised fold change) was 0.72, the “Ctla2b log2 nFC BLM/EL244 vs BLM” value (DEG Ctla2b, nFC: normalised fold change) was 0.96 and the “log2 nFC BLM/EL244 vs BLM” value (DEG Cxcl13) was -1.42. The “Cxcr2 log2 nFC BLM/EL244 vs BLM” value (DEG Cxcr2, nFC: normalised fold change) was 1.19, the “Cyp2a5 log2 nFC BLM/EL244 vs BLM” value (DEG Cyp2a5, nFC: normalised fold change) was 1.66 and the “Cyp2d22 log2 nFC BLM/EL244 vs BLM” value (DEG Cyp2d22, nFC: normalised fold change) was 0.97. For the same molecule, the “Cyp2f2 log2 nFC BLM/EL244 vs BLM” value (DEG Cyp2f2, nFC: normalised fold change) was 0.79, the “Cyp4b1 log2 nFC BLM/EL244 vs BLM” value (DEG Cyp4b1, nFC: normalised fold change) was 1.18 and the “log2 nFC BLM/EL244 vs BLM” value (DEG Cyp7b1) was -1.41. For the same molecule, the “Cytl1 log2 nFC BLM/EL244 vs BLM” value (DEG Cytl1, nFC: normalised fold change) was 1.67, the “D630024D03Rik log2 nFC BLM/EL244 vs BLM” value (DEG D630024D03Rik, nFC: normalised fold change) was 1.60 and the “Dgkh log2 nFC BLM/EL244 vs BLM” value (DEG Dgkh, nFC: normalised fold change) was 0.84. For the same molecule, the “Dnali1 log2 nFC BLM/EL244 vs BLM” value (DEG Dnali1, nFC: normalised fold change) was 0.73, the “log2 nFC BLM/EL244 vs BLM” value (DEG Dok2) was -1.37 and the “Dpep1 log2 nFC BLM/EL244 vs BLM” value (DEG Dpep1, nFC: normalised fold change) was 0.71. For the same molecule, the “Dpysl5 log2 nFC BLM/EL244 vs BLM” value (DEG Dpysl5, nFC: normalised fold change) was 1.90, the “Dusp1 log2 nFC BLM/EL244 vs BLM” value (DEG Dusp1, nFC: normalised fold change) was 0.86 and the “log2 nFC BLM/EL244 vs BLM” value (DEG E2f8) was -1.57.
